A short description of this series: Stability of pemetrexed disodium in sodium hydroxide at different temperature (impurity content by HPLC). It counts as physicochemical. On the procedure:
In comparison with the prior art, the embodiments of the present invention have the following advantages: • 1) The reaction of the compound of formula (II) or salt thereof with an aqueous basic solution is preferably conducted at a low temperature, e.g., no more than 10° C., in comparison with the room temperature of WO2001014379 and WO1999016742. As shown in Table 1 shown below, the inventors of the present invention unexpectedly discovered that impurities can be reduced or minimized by conducting the reaction at a low temperature. As noted above, after the reaction step, the low temperature is preferably maintained during the steps of adjusting pH and adding anti-solvent. • 2) The anti-solvent is preferably added before adjusting the pH value. The inventors unexpectedly discovered that by doing so, the mixture can be diluted by the addition of the anti-solvent before the adjusting step, therefore minimizing local heat effect and formation of impurities. In comparison, WO2001014379 discloses adjusting the pH value before the addition of an anti-solvent. • 3) In accordance with the present invention, the compound of formula (II) can be converted to a pemetrexed salt (e.g., at a pH of 6.5 to 9.5). In contrast, the process of WO1999016472 comprises making pemetrexed free form first (at a pH of about 3), and then converting the free form to a salt (at a pH of about 6.5 to 9.5). The process of the present invention is simpler and more convenient. • 4) In accordance with an embodiment of the present invention, the crude pemetrexed salt may be crystallized at a room temperature; whereas in accordance with WO2001014379, the crystallizing is conducted at about 70° C. The cooling, heating, and adjusting pH steps of WO2001014379 may be avoided in accordance with the embodiment of the present invention. The process of the present invention can save workup procedures and has better control of impurity.

The values below come from US9051322B2, “Process for the production of a pemetrexed salt” (SCINOPHARM TAIWAN, LTD., priority 2011, dated 2015).

Counter-ions that a name gives are not always drawn.

On to `Nc1nc2[nH]cc(CCc3ccc(C(=O)N[C@@H](CCC(=O)O)C(=O)O)cc3)c2c(=O)[nH]1` [pemetrexed disodium, L-Glutamic acid, N-[4-[2-(2-amino-4,7-dihydro-4-oxo-1H-pyrrolo[2,3-d]pyrimidin-5-yl)ethyl]benzoyl]-, disodium salt], for which the “content of impurity based on HPLC spectra's % Area” value (shortened to “content … on HPLC spectra's % Area”) (5 °C, 1 hr) is reported as 0.012%; the “content … on HPLC spectra's % Area” value (5 °C, 2 hr) was determined as 0.013%; the “content … on HPLC spectra's % Area” value (5 °C, 4 h) was 0.035%; the “content … on HPLC spectra's % Area” value (5 °C, 6 hr) stood at 0.066%; the “content … on HPLC spectra's % Area” value (10 °C, 1 hr) is given as 0.051%; the “content … on HPLC spectra's % Area” value (10 °C, 2 hr) is 0.053%. Moreover, the “content … on HPLC spectra's % Area” value was 0.070% (10 °C, 4 h); 0.075% (10 °C, 6 hr); 0.076% (15 °C, 1 hr); 0.085% (15 °C, 2 hr); 0.110% (15 °C, 4 h); 0.123% (15 °C, 6 hr).
